Experimental findings from ChEMBL document CHEMBL1212831, “Discovery of N-[(2S)-5-(6-fluoro-3-pyridinyl)-2,3-dihydro-1H-inden-2-yl]-2-propanesulfonamide, a novel clinical AMPA receptor positive modulator” (J Med Chem, 2010) are described below.

By Cmax is commonly meant the peak of the concentration-time curve. A word on the IC50: it is the concentration at which inhibition is half-maximal. The Tmax is the time at which the peak concentration occurs. By solubility (thermodynamic) is commonly meant the concentration in solution at equilibrium with solid. Usually half-life stands for the time needed for the level to fall by half in the phase considered. One may read the bioavailability as the share of a dose that reaches the circulation, judged against a reference dose that is usually intravenous. What is called Kp is tissue or fluid exposure divided by exposure in the circulation.

Converted amounts (≈) assume the structure as drawn.

The nature of series [1]: Cmax in Beagle dog at 0.5 mg/kg, po. The series is classed as ADME, organism-based, Canis lupus familiaris. Set-up: dose 0.5 mg/kg, route oral. Conditions: in vivo.
In series [2] the target is Cytochrome P450 3A4 (Homo sapiens, UniProt P08684).
Sequence of Cytochrome P450 3A4 (P08684 whole entry): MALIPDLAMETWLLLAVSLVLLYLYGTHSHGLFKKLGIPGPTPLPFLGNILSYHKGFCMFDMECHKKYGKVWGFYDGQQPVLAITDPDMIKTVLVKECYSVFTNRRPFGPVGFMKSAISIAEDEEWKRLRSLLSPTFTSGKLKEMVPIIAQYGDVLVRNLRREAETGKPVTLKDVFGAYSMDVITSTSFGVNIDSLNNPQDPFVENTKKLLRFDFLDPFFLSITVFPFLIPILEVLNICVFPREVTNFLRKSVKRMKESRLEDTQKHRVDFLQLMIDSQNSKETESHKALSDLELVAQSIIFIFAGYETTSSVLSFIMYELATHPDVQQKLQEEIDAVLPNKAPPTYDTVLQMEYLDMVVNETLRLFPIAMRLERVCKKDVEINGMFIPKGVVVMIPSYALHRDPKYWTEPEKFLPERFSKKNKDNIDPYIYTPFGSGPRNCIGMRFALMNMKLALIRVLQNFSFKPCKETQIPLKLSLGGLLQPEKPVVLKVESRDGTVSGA
Description: Inhibition of human CYP3A4 after 10 mins
Series [3] in a line: Tmax in Beagle dog at 0.5 mg/kg, po. The series is classed as ADME, organism-based, Canis lupus familiaris. Set-up: dose 0.5 mg/kg, route oral. Conditions: in vivo.
Series [4] is described as follows: Equilibrium solubility of the compound in water at pH 2 to 10. In kind it is physicochemical.
The nature of series [5]: Volume of distribution at steady state in cynomolgus monkey at 0.125 mg/kg, iv and 0.5 mg/kg, po. The series is classed as ADME, organism-based, Macaca fascicularis. Conditions: in vivo, read-out: Vdss.
A short description of series [6]: Half life in Beagle dog at 0.5 mg/kg, po. The note with it: in vivo. The series is classed as ADME, organism-based, Canis lupus familiaris. Set-up: dose 0.5 mg/kg, route oral.
The test system of series [7] is Brain. Put plainly: Drug level in po dosed Lister Hooded rat brain assessed per gram of tissue. The series is classed as ADME, organism-based. The note with it: in vivo.
Series [8] in a line: Oral bioavailability in Beagle dog at 0.5 mg/kg. In kind it is ADME, organism-based, Canis lupus familiaris. Conditions: in vivo.
Series [9] is described as follows: Plasma protein binding in human at 1 ug/ml after 6 hrs by equilibrium dialysis method. The series is classed as ADME, cell-free. Conditions: read-out: PPB (converted).
Series [10] addresses T1, Nuclear receptor subfamily 1 group I member 2 (Homo sapiens, UniProt O75469).
T1 sequence (O75469 whole entry): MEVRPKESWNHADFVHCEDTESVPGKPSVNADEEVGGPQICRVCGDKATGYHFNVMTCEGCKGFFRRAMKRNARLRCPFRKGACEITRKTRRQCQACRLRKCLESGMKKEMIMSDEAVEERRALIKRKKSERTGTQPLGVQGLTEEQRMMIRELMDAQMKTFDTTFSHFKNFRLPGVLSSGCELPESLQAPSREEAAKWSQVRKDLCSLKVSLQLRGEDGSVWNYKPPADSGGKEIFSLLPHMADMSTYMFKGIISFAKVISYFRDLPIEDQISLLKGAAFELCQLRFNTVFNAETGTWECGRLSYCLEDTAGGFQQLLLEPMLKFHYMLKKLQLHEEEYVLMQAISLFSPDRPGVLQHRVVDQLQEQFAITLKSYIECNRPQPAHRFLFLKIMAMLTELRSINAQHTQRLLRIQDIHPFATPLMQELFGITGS
Put plainly: Activation of human PXR.

A short description of series [11]: Tmax in cynomolgus monkey at 0.5 mg/kg, po. Set-up: dose 0.5 mg/kg, route oral. Conditions: in vivo. In kind it is ADME, organism-based, Macaca fascicularis.
Series [12] can be described thus: Half life in Beagle dog at 0.125 mg/kg, iv. The series is classed as ADME, organism-based, Canis lupus familiaris. Set-up: dose 0.125 mg/kg, route intravenous. Conditions: in vivo.
A short description of series [13]: Plasma protein binding in rat at 1 ug/ml after 6 hrs by equilibrium dialysis method. The series is classed as ADME, cell-free. Conditions: read-out: PPB (converted).
Series [14] deals with Liver microsomes.
A short description of series [15]: Half life in cynomolgus monkey at 0.5 mg/kg, po. Conditions: in vivo. In kind it is ADME, organism-based, Macaca fascicularis. Set-up: dose 0.5 mg/kg, route oral.
A short description of series [16]: in vivo. The note with it: rat, brain/blood.
Description: Ratio of brain AUC (0 to t) to blood AUC (0 to t) in rat
For series [17], the target named is Voltage-gated inwardly rectifying potassium channel KCNH2 (Homo sapiens, UniProt Q12809). As to the kind of experiment: Inhibition of human ERG.
Sequence of Voltage-gated inwardly rectifying potassium channel KCNH2 (Q12809 whole entry): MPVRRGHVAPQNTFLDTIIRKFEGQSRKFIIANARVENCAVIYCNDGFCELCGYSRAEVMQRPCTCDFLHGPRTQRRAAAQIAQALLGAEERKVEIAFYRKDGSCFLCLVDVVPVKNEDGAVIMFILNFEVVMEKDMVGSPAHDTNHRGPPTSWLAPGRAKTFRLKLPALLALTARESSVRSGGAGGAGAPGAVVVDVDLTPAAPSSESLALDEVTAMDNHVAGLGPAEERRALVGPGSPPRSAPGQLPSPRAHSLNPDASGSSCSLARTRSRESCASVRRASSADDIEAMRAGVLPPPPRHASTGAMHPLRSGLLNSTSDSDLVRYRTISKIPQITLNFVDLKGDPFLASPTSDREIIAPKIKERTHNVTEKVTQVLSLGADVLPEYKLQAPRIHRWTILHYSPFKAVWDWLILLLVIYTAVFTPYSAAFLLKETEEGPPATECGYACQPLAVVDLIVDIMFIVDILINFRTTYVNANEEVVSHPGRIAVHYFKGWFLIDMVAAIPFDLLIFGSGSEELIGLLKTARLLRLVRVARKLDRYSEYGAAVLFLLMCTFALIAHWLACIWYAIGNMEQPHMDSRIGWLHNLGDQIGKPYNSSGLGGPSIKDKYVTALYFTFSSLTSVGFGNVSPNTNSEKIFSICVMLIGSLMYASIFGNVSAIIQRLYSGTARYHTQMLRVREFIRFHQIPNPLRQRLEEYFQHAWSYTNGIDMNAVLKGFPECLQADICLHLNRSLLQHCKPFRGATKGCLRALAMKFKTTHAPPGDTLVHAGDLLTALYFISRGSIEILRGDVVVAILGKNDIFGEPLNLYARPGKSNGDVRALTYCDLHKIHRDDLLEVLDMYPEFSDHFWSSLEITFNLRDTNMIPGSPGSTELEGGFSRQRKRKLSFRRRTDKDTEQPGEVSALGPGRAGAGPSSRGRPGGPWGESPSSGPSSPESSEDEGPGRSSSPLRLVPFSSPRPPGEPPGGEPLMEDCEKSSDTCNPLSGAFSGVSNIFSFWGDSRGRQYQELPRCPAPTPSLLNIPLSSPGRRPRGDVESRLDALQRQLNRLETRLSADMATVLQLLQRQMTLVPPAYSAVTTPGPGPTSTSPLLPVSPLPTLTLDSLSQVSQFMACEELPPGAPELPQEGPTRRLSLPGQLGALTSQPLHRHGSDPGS

`CC(C)S(=O)(=O)N[C@H]1Cc2ccc(-c3ccc(F)nc3)cc2C1` [GSK-729327]: the Cmax in series [1] was found to be 116 ng/mL. For the same compound, the IC50 in series [2] is above 10 µM; in series [14] it was below 0.7 µM. Besides, the Tmax in [3] came out at 2 h; in series [11], 6 h. The compound further yielded a thermodynamic solubility in [4] of 100 µg/mL (≈ 299 µM). Further, the Vd in [5] was determined as 1.8 L/kg. Further, the half-life in series [6] is 17 h; in [12] it was 16 h; in series [15], 24 h. Besides, the Drug uptake in [7] is reported as 122 ng/g. Besides, the bioavailability in [8] stood at 61%. Further, the fraction unbound at 6 h, 1 ug/ml in [9] is 0.092; in [13] it was 0.133. The Activity result in [10] is recorded as “Not Active”. In addition, the Kp in series [16] was 2.1. Besides, the “inhibition (INH)” value in [17] was “Not Active”.
